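All cell lines were grown in 96-well plates and treated with compound for 48 hours. TGI is the concentration that stops growth completely.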
What was measured:
Experiment in all cases: inhibition of tumour cell growth, NCI panel, 48 h
786-0 renal = system: 786-0 renal
A498 renal = system: A498 renal
A549 NSCLC = system: A549 NSCLC
ACHN renal = system: ACHN renal
CAKI-1 renal = system: CAKI-1 renal
CCRF-CEM leukemia = system: CCRF-CEM leukemia
COLO 205 colon = system: COLO 205 colon
DLD-1 colon = system: DLD-1 colon
DMS 114 small cell lung = system: DMS 114 small cell lung
DMS 273 small cell lung = system: DMS 273 small cell lung
DU-145 prostate = system: DU-145 prostate
EKVX NSCLC = system: EKVX NSCLC
HCC-2998 colon = system: HCC-2998 colon
HCT-116 colon = system: HCT-116 colon
HCT-15 colon = system: HCT-15 colon
HL-60(TB) leukemia = system: HL-60(TB) leukemia
HOP-62 NSCLC = system: HOP-62 NSCLC
HOP-92 NSCLC = system: HOP-92 NSCLC
HS 578T breast = system: HS 578T breast
HT29 colon = system: HT29 colon
IGROV1 ovarian = system: IGROV1 ovarian
K-562 leukemia = system: K-562 leukemia
KM12 colon = system: KM12 colon
LOX IMVI melanoma = system: LOX IMVI melanoma
M14 melanoma = system: M14 melanoma
MALME-3M melanoma = system: MALME-3M melanoma
MCF7 breast = system: MCF7 breast
MDA-MB-231 breast = system: MDA-MB-231 breast
MDA-MB-435 = system: MDA-MB-435
MDA-N = system: MDA-N
MOLT-4 leukemia = system: MOLT-4 leukemia
NCI-H226 lung = system: NCI-H226 lung
NCI-H23 lung = system: NCI-H23 lung
NCI-H460 lung = system: NCI-H460 lung
NCI-H522 lung = system: NCI-H522 lung
NCI/ADR-RES ovarian = system: NCI/ADR-RES ovarian
OVCAR-3 ovarian = system: OVCAR-3 ovarian
OVCAR-4 ovarian = system: OVCAR-4 ovarian
OVCAR-5 ovarian = system: OVCAR-5 ovarian
OVCAR-8 ovarian = system: OVCAR-8 ovarian
PC-3 prostate = system: PC-3 prostate
RPMI-8226 leukemia = system: RPMI-8226 leukemia
RXF 393 renal = system: RXF 393 renal
RXF-631 renal = system: RXF-631 renal
SF-268 CNS = system: SF-268 CNS
SF-295 CNS = system: SF-295 CNS
SF-539 CNS = system: SF-539 CNS
SK-MEL-2 melanoma = system: SK-MEL-2 melanoma
SK-MEL-28 melanoma = system: SK-MEL-28 melanoma
SK-MEL-5 melanoma = system: SK-MEL-5 melanoma
SK-OV-3 ovarian = system: SK-OV-3 ovarian
SN12C renal = system: SN12C renal
SNB-19 CNS = system: SNB-19 CNS
SNB-75 CNS = system: SNB-75 CNS
SNB-78 CNS = system: SNB-78 CNS
SR leukemia = system: SR leukemia
SW-620 colon = system: SW-620 colon
T-47D breast = system: T-47D breast
TK-10 renal = system: TK-10 renal
U251 CNS = system: U251 CNS
UACC-257 melanoma = system: UACC-257 melanoma
UACC-62 melanoma = system: UACC-62 melanoma
UO-31 renal = system: UO-31 renal
BT-549 breast = system: BT-549 breast
KM20L2 colon = system: KM20L2 colon
LXFL 529 NSCLC = system: LXFL 529 NSCLC
M19-MEL melanoma = system: M19-MEL melanoma

Cc1nc2c(n1-c1ccc(Br)cc1)C(=O)c1ccccc1C2=O was tested, and the TGI (786-0 renal) was > 71.1 µM, the TGI (A498 renal) was > 100 µM and the TGI (A549 NSCLC) was > 100 µM. For the same compound, the TGI (ACHN renal) was > 100 µM, the TGI (CAKI-1 renal) was > 100 µM and the TGI (CCRF-CEM leukemia) was > 100 µM. For the same compound, the TGI (COLO 205 colon) was > 100 µM, the TGI (DLD-1 colon) was > 100 µM and the TGI (DMS 114 small cell lung) was > 100 µM. The TGI (DMS 273 small cell lung) was > 100 µM, the TGI (DU-145 prostate) was > 100 µM and the TGI (EKVX NSCLC) was > 100 µM. For the same compound, the TGI (HCC-2998 colon) was > 100 µM, the TGI (HCT-116 colon) was > 74 µM and the TGI (HCT-15 colon) was > 100 µM. The TGI (HL-60(TB) leukemia) was 18 µM, the TGI (HOP-62 NSCLC) was > 100 µM and the TGI (HOP-92 NSCLC) was 66 µM. For the same compound, the TGI (HS 578T breast) was 50 µM, the TGI (HT29 colon) was > 100 µM and the TGI (IGROV1 ovarian) was > 64.4 µM. For the same compound, the TGI (K-562 leukemia) was > 100 µM, the TGI (KM12 colon) was > 100 µM and the TGI (LOX IMVI melanoma) was > 100 µM. The TGI (M14 melanoma) was > 100 µM, the TGI (MALME-3M melanoma) was > 67.2 µM and the TGI (MCF7 breast) was > 100 µM. For the same compound, the TGI (MDA-MB-231 breast) was > 100 µM, the TGI (MDA-MB-435) was 23.3 µM and the TGI (MDA-N) was > 100 µM. For the same compound, the TGI (MOLT-4 leukemia) was > 100 µM, the TGI (NCI-H226 lung) was > 100 µM and the TGI (NCI-H23 lung) was > 100 µM. For the same compound, the TGI (NCI-H460 lung) was > 40.9 µM, the TGI (NCI-H522 lung) was > 79.2 µM and the TGI (NCI/ADR-RES ovarian) was > 100 µM. For the same compound, the TGI (OVCAR-3 ovarian) was 31.3 µM, the TGI (OVCAR-4 ovarian) was > 100 µM and the TGI (OVCAR-5 ovarian) was > 100 µM. For the same compound, the TGI (OVCAR-8 ovarian) was > 70.1 µM, the TGI (PC-3 prostate) was 51 µM and the TGI (RPMI-8226 leukemia) was > 100 µM. For the same compound, the TGI (RXF 393 renal) was 69.9 µM, the TGI (RXF-631 renal) was > 100 µM and the TGI (SF-268 CNS) was > 100 µM. For the same compound, the TGI (SF-295 CNS) was > 59.6 µM, the TGI (SF-539 CNS) was > 65.2 µM and the TGI (SK-MEL-2 melanoma) was > 100 µM. The TGI (SK-MEL-28 melanoma) was > 100 µM, the TGI (SK-MEL-5 melanoma) was > 100 µM and the TGI (SK-OV-3 ovarian) was 97 µM. The TGI (SN12C renal) was > 100 µM, the TGI (SNB-19 CNS) was > 39.4 µM and the TGI (SNB-75 CNS) was > 62.1 µM. For the same compound, the TGI (SNB-78 CNS) was > 100 µM, the TGI (SR leukemia) was > 100 µM and the TGI (SW-620 colon) was > 100 µM. The TGI (T-47D breast) was > 100 µM, the TGI (TK-10 renal) was > 100 µM and the TGI (U251 CNS) was > 43.6 µM. The TGI (UACC-257 melanoma) was > 100 µM, the TGI (UACC-62 melanoma) was > 85.1 µM and the TGI (UO-31 renal) was > 40.6 µM.

Compound CCN(CCCl)CCCCNc1c2ccccc2nc2ccc(OC)cc12 has a TGI (786-0 renal) of 1.56 µM, a TGI (A498 renal) of 0.875 µM and a TGI (A549 NSCLC) of 2.27 µM. The TGI (ACHN renal) was 1.72 µM, the TGI (BT-549 breast) was 7.41 µM and the TGI (CAKI-1 renal) was 1.89 µM. The TGI (COLO 205 colon) was 3.63 µM, the TGI (DMS 114 small cell lung) was 1.83 µM and the TGI (DMS 273 small cell lung) was 1.44 µM. For the same compound, the TGI (DU-145 prostate) was 1.74 µM, the TGI (EKVX NSCLC) was 3.15 µM and the TGI (HCT-116 colon) was 1.29 µM. It also gave a TGI (HCT-15 colon) of 5.43 µM, a TGI (HOP-62 NSCLC) of 3.71 µM and a TGI (HOP-92 NSCLC) of 0.886 µM. The TGI (HS 578T breast) was > 100 µM, the TGI (HT29 colon) was 3.31 µM and the TGI (IGROV1 ovarian) was 2.05 µM. For the same compound, the TGI (KM12 colon) was 1.82 µM, the TGI (KM20L2 colon) was 3.35 µM and the TGI (LOX IMVI melanoma) was 1.52 µM. For the same compound, the TGI (LXFL 529 NSCLC) was 1.76 µM, the TGI (M14 melanoma) was 2.92 µM and the TGI (M19-MEL melanoma) was 1.68 µM. It also gave a TGI (MALME-3M melanoma) of 2.89 µM, a TGI (MCF7 breast) of 0.935 µM and a TGI (MDA-MB-231 breast) of 3.99 µM. It also gave a TGI (MDA-MB-435) of 2.12 µM, a TGI (MDA-N) of 2.96 µM and a TGI (NCI-H226 lung) of 1.08 µM. The TGI (NCI-H23 lung) was 1.96 µM, the TGI (NCI-H460 lung) was 1.39 µM and the TGI (NCI-H522 lung) was 1.43 µM. The TGI (NCI/ADR-RES ovarian) was > 100 µM, the TGI (OVCAR-3 ovarian) was 3.78 µM and the TGI (OVCAR-4 ovarian) was 2.79 µM. The TGI (OVCAR-5 ovarian) was 2.96 µM, the TGI (OVCAR-8 ovarian) was 1.94 µM and the TGI (PC-3 prostate) was 1.14 µM. For the same compound, the TGI (RPMI-8226 leukemia) was 4.08 µM, the TGI (RXF 393 renal) was 1.7 µM and the TGI (RXF-631 renal) was 4.51 µM. It also gave a TGI (SF-268 CNS) of 1.36 µM, a TGI (SF-295 CNS) of 3.64 µM and a TGI (SF-539 CNS) of 4.69 µM. For the same compound, the TGI (SK-MEL-2 melanoma) was 2.48 µM, the TGI (SK-MEL-28 melanoma) was 8.36 µM and the TGI (SK-MEL-5 melanoma) was 1.98 µM. For the same compound, the TGI (SK-OV-3 ovarian) was 2.77 µM, the TGI (SN12C renal) was 1.61 µM and the TGI (SNB-19 CNS) was 3.34 µM. It also gave a TGI (SNB-75 CNS) of 2.14 µM, a TGI (SNB-78 CNS) of 4.07 µM and a TGI (SR leukemia) of 1.55 µM. It also gave a TGI (SW-620 colon) of 1.63 µM, a TGI (T-47D breast) of 1.5 µM and a TGI (TK-10 renal) of 5.22 µM. It also gave a TGI (U251 CNS) of 1.72 µM, a TGI (UACC-257 melanoma) of 10.5 µM and a TGI (UACC-62 melanoma) of 1.59 µM. It also gave a TGI (UO-31 renal) of 4.51 µM.

Source: PubChem BioAssay (NCI)
